Where “and” joins values, the source holds several entries; their conditions need not be identical. Equal entries are not always repeated.
What was measured:
aphids = aphids on sprayed roses; format: in vivo; conditions: plants P3 (T2) and P4 (T1), each with >35 insects before treatment
powdery mildew = powdery mildew on roses, disease rating / MPDC after foliar spray; format: in vivo, Sphaerotheca pannosa; conditions: for Powdery Mildew, Post (rating): ~100 ml spray; for Mean % Disease Control, rose powdery mildew: single 100 ml foliar spray
Procedure: Each formulation is evaluated for its effect on specific pests and/or plant host using any of the compounds of formula (1) as well as other components of the formulation such as Tween 80 and/or sodium bicarbonate, with the combination and effective amount of each component adapted for a particular application to minimize toxicity while maintaining or increasing the antipathogenic effect of the formulation. The effective amount of each component may be determined by systematically varying the amount of that component in a test formulation, treating a plant of interest with the test formulation, and monitoring the level of pest infestation compared to an untreated control plant. An effective amount of a test component is identified as the amount that controls the growth of the pathogen on the plant host, thus reducing the disease rating of the plant. The mean percentage disease […] (MPDC) can be calculated for each particular application. MPDC is defined by the formula: [formula] Eight cultivars of rose were tested to investigate the effect of a cinnamic aldehyde/NaHCO3 formulation on rust and spores. The cultivars used included Moss unnamed (Moss), […], Rosette Delize (Hybrid Tea), Rosa Rugosa Rubra (Rugosa), Abel Morrison (Hybrid perpetual), John Laing, Betty Prior, and Rose de Roi. […] The Hybrid Tea and Hybrid perpetual were rated 3 and the Rugosa was rated 1. […] Control plants received no treatment. […] Moreover, the treatment appeared to have induced systemic resistance. […] Plants were an average of 0.86 m apart. […] Controls were untreated plants. […] Weekly reviews were made of the various plants. […] of infected rose in dedicated experimental rose gardens were used. Four Mrs. John Laing (Hybrid perpetual) and two Marchionese of Londonderry (Hybrid perpetual) rose plants were treated with one of two formulations of coniferyl aldehyde. […] The first two Mrs. […] Mrs. […] Both Marchionese of Londonderry plants (P5 and P6) were rated 5 for powdery mildew and rust after Paulus and Nelson (supra). Two treatment formulae were used for this trial. […] Control plants were sprayed with water alone. The change in the rating from pre-treatment to post-treatment was calculated as the mean percentage of disease control (MPDC) as described herein. A three treatment experiment with cinnamic aldehyde formula, coniferyl aldehyde formula and combined cinnamic and coniferyl aldehyde formula was carried out on field grown roses known to be susceptible to powdery mildew. The plants were blocked by variety before fungicide treatments and were randomized as to the plants. Two varieties were used in each of the three experiments described below. […] In experiment 3 Comte de Chambord (Portland) and Madame Pierre Oger (Bourbon) were used. In Experiment 1, the effect of cinnamic aldehyde alone and in combination with Tween 80 and/or NaHCO3 component was evaluated in experiment 2 the effect of coniferyl aldehyde alone and in combination with Tween 80 and/or NaHCO3 was evaluated and in experiment 3 a combination of cinnamic aldehyde and coniferyl aldehyde with Tween 80 and/or NaHCo3 was evaluated. […] See Table 3 for the treatment protocol; formula 1 was used for these experiments. […] Plants were evaluated using the Paulus/Nelson scale just prior to and four days after treatment. […] Moreover, cinnamic aldehyde, coniferyl aldehyde, Tween 80 and NaHCO3 are used in the food industry and there is likely to be little toxicological risk to the consumer or handler from any horticultural or food crop sprayed in this way. Similarly, as these chemicals leave no toxic residue, there is little chance of any detrimental effect on the wider environment, and their use is likely to be compatible with current biological control methods such as beneficial insects and/or microorganisms.

rust = rust (and spores) on roses, disease rating / MPDC after foliar spray; format: in vivo, Phragmidrium mucronatrum
Procedure: Each formulation is evaluated for its effect on specific pests and/or plant host using any of the compounds of formula (1) as well as other components of the formulation such as Tween 80 and/or sodium bicarbonate, with the combination and effective amount of each component adapted for a particular application to minimize toxicity while maintaining or increasing the antipathogenic effect of the formulation. The effective amount of each component may be determined by systematically varying the amount of that component in a test formulation, treating a plant of interest with the test formulation, and monitoring the level of pest infestation compared to an untreated control plant. An effective amount of a test component is identified as the amount that controls the growth of the pathogen on the plant host, thus reducing the disease rating of the plant. The mean percentage disease […] (MPDC) can be calculated for each particular application. MPDC is defined by the formula: [formula] Eight cultivars of rose were tested to investigate the effect of a cinnamic aldehyde/NaHCO3 formulation on rust and spores. The cultivars used included Moss unnamed (Moss), […], Rosette Delize (Hybrid Tea), Rosa Rugosa Rubra (Rugosa), Abel Morrison (Hybrid perpetual), John Laing, Betty Prior, and Rose de Roi. […] The Hybrid Tea and Hybrid perpetual were rated 3 and the Rugosa was rated 1. […] Control plants received no treatment. […] Moreover, the treatment appeared to have induced systemic resistance. […] Plants were an average of 0.86 m apart. […] Controls were untreated plants. […] Weekly reviews were made of the various plants. […] Six cultivars of infected rose in dedicated experimental rose gardens were used. Four Mrs. John Laing (Hybrid perpetual) and two Marchionese of Londonderry (Hybrid perpetual) rose plants were treated with one of two formulations of coniferyl aldehyde. […] The first two Mrs. […] Mrs. […] Both Marchionese of Londonderry plants (P5 and P6) were rated 5 for powdery mildew and rust after Paulus and Nelson (supra). Two treatment formulae were used for this trial. […] Control plants were sprayed with water alone. The change in the rating from pre-treatment to post-treatment was calculated as the mean percentage of disease control (MPDC) as described herein.

grape phylloxera eggs = assay: whole plant or invertebrate
Procedure: Mixed age groups of 60 grape phylloxera eggs were established on filter paper (Whatman #1, 5.5 cm circles) in 50×9 mm sealed plastic petri dishes treated with 100 μl of solution. A selected concentration of a test formulation of 400 μl was added to the filter disk and the dish closed with the petri dish cover and placed in a plastic container box. After 6 hours, the box was placed in an environmental chamber at 24° C. in the dark. The eggs were placed in groups of 10. After one week, the percentage of hatch is determined. In an initial test, doses from 0.1 to 25,000 ppm cinnamic aldehyde in 6% NaHCO3 and 2% Tween 80 were evaluated with a single group of eggs at each dosage. Three replicates of the experiment were performed. […] LD50 and LD95 were determined by probit analysis.
Grape phylloxera eggs were treated with cinnamaldehyde (CNMA) in a 6% NaHCO3, 2% Tween-80 formulation in a laboratory bioassay. Mortality of the eggs was indicated by failure of the egg shell to split. […] Leaves of one-year-old greenhouse Vitis vinifera cultivar Merlot vines heavily infested with grape phylloxera were sprayed to run-off with a CNMA treatment using the same formulation. […] Roots taken from plants 1, 2 and 5 weeks after CNMA or other treatments were placed in Petri dish bioassays and infested with untreated phylloxera eggs.
Eggs of various age classes were placed on Whatman #1 filter paper moistened with enough treatment solution to form a meniscus about halfway up the sides of the eggs. The pieces of filter paper with eggs were maintained in sealed plastic Petri dishes at […] until they were 7 days old and then hatched individuals were counted. Hatch was considered successful if the […]

[1] = test system: melon aphid (Aphis gossypii Glover); assay: melon aphid on chrysanthemum leaves, 5% HCA formulations; format: in vivo; conditions: 5% HCA (emulsion with 1% Tween 20 in water, or microencapsulated); 24 hours
Procedure: For each test, treatment cartons received the active ingredient as a 5% aqueous emulsion or as microcapsules in either beeswax or carnauba wax. The negative control was a water only treatment. Sprays of each treatment were applied using a laboratory spray tower calibrated to spray the field equivalent of 113 liters per acre. The paper carton arenas were maintained at room temperature. Experimental cartons were examined at 24 hours post-treatment and % mortality determined (see FIG. 3). Every treatment regimen killed 100% of the melon aphids at 24 hours.

[2] = 25° C; cited from earlier work
[3] = test system: thrips insects (Frankliniella occidentalis); assay: residual activity on filter paper against thrips; format: in vivo; conditions: residue on filter paper, rehydrated 24 and 72 hours after spraying; thrips mortality after one hour
Procedure: In the first experiment, two ml of two concentrations of CNMA (0.3 and 1%) were sprayed on filter paper (Whatman). As a negative control, two ml of water also were sprayed on filter paper. Twenty-four hours later, two ml of water were sprayed on treatment and control filter paper, which were then dried for 30 min. Approximately 30 thrips insects (Frankliniella occidentalis) were introduced and the number of F. occidentalis were observed after one hour. Mean mortality was calculated for each treatment.
After 72 hours, the treatment filter papers were flipped over and only the negative control filter paper and the filter paper treated with 1% CNMA were sprayed with 2 ml of water and allowed to dry for 30 minutes. Approximately 30 thrips were introduced to the two treated filter papers and after one hour the number of dead F. occidentalis were observed and the mean mortality calculated for each treatment. A similar assay was conducted using a-hexyl cinnamaldehyde. Mean mortality was higher for rehydrated filter papers compared to non-rehydrated filter papers over time.

[4] = T1 low dose: 5 g coniferyl aldehyde, 10 g Tween 80, 80 g NaHCO3 per 1000 g, plants P1, P4, P6
[5] = T2 high dose: 100 g coniferyl aldehyde, 20 g Tween 80, 120 g NaHCO3 per 1000 g, plants P2, P3, P5
[6] = baseline before T1 low dose, plants P1, P4, P6
[7] = baseline before T2 high dose, plants P2, P3, P5
[8] = 1000 ppm in 6% NaHCO3, 2% Tween 80, 7 days

COc1cc(/C=C/C=O)ccc1O [coniferyl aldehyde]
aphids on treated rose plants (aphids): eliminated
Powdery Mildew, Post (rating) (powdery mildew; [4]): 2 (2=26-50) and 1 (1=1-25)
Powdery Mildew, Change in rating (powdery mildew; [5]): 3 and 4
Powdery Mildew, Post (rating) (powdery mildew; [5]): 2 (2=26-50) and 1 (1=1-25)
Mean % Disease Control, rose powdery mildew (powdery mildew; aldehyde 5 g (mixture 2.5 g + 2.5 g) with NaHCO3 (80 g), four days): 44%
Mean % Disease Control, rose powdery mildew (powdery mildew; aldehyde 5 g (mixture 2.5 g + 2.5 g) with T80 (10 g), four days): 44%
Mean % Disease Control, rose powdery mildew (powdery mildew; aldehyde 5 g (mixture 2.5 g + 2.5 g) with T80 + NaHCO3 (formulas G, M, Q), four days): 81%
Mean % Disease Control, rose powdery mildew (powdery mildew; aldehyde 5 g (mixture 2.5 g + 2.5 g), no additive, rated four days after treatment): 56%
Powdery Mildew, Pre (rating) (powdery mildew; [6]): 3 (3=51-75) and 4 (4=76-90)
Powdery Mildew, Pre (rating) (powdery mildew; [7]): 5 (5=>90% total leaves per bush)
Rust (rating), Change (rust; [4]): 1 and 2
Rust (rating), Change (rust; [5]): 3 and 4
Rust (rating), Post (rust; [5]): 2 (2=26-50) and 1 (1=1-25)
Rust (rating), Pre (rust; [6]): 3 (3=51-75) and 4 (4=76-90)
Rust (rating), Pre (rust; [7]): 5 (5=>90% total leaves per bush)
eggs hatched incompletely (IH) (grape phylloxera eggs; [8]): 85%
nymphs that died in the shell (DIS) (grape phylloxera eggs; [8]): 12%
nymphs that died in the shell (DIS) (grape phylloxera eggs; 5000 ppm aldehyde in 6% NaHCO3, 2% Tween 80, 7 days): 10%

CCCCCC/C(C=O)=C/c1ccccc1 [HCA, 2-hexyl-3-phenyl-2-propenal]
melon aphids killed [1]: 100%
vapor pressure [2]: 70×10^−5 mm Hg
egg hatch failure / mortality at 560 ppm (grape phylloxera eggs; 560 ppm, egg tests with CNMA analogs): no hatch failure at 560 ppm; rapid
mortality at 100 ppm (grape phylloxera eggs; Daktulosphaira vitifoliae, read-out: rapid nymphal mortality): 100%
residual activity [3]: have residual activity

CCN(CC)c1cccc(C)c1 [N,N-diethyl-m-toluamine, reference compound]
vapor pressure [2]: 167×10^−5 mm Hg
